Assay in all cases: growth of human tumour cells (NCI), 48 h
For test [1], the system named is IGROV1 ovarian.
Test [2] deals with HT29 colon.
Test [3] deals with HL-60(TB) leukemia.
Test [4] has as its system ACHN renal.
Test [5] relates to HOP-92 NSCLC.
The subject of test [6] is CAKI-1 renal.
The test system of test [7] is MCF7 breast.
Test [8] deals with SK-MEL-28 melanoma.

Values joined by “and” are separate entries in the source; they are usually repeats but may differ in a detail not shown here. Identical values can stand only once.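 Growth conditions: 96-well plates. Treatment: test compound, 48 hours, 5 concentrations. Analysis: linear interpolation between bracketing concentrations; unreached endpoints set to highest concentration. The concentration for 50% growth inhibition is given as GI50. The concentration for full growth arrest is given as TGI.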 Some results are limits rather than exact numbers.

On to `CNC(=O)c1cccc(-c2ccc3c(N4CCOC[C@@H]4C)nc(N4CCOC[C@@H]4C)nc3n2)c1`, for which the GI50 in test [1] is 0.0443 µM and 0.0381 µM and 0.0224 µM; in test [2] it was 0.144 µM and 0.355 µM and 0.323 µM; in test [3] it was 0.353 µM and 0.37 µM and 2.91 µM; in test [4], 0.095 µM and 0.115 µM and 0.119 µM; in test [5] it was 0.0187 µM and < 0.0133 µM; in test [6], 0.0693 µM and 0.148 µM and 0.144 µM. For the same molecule, the GI50 in test [7] was 0.0295 µM and 0.098 µM and 0.0368 µM; in test [8], 0.041 µM and 0.123 µM and 0.0402 µM. The TGI in test [2] is more than 100 µM; in test [3], 25.2 µM and > 10 µM and 64.1 µM; in test [4], more than 100 µM; in test [5], 0.238 µM and 0.0728 µM; in test [6] it was 1.83 µM and > 3.36 µM; in test [7], 5.51 µM and > 3.46 µM and 9.7 µM. The TGI in test [8] was 0.72 µM and 3.01 µM and 0.671 µM.

Turning to `O=c1cc(-c2ccccc2)nc2n1CCN2Cc1ccccc1`, the GI50 in test [1] is 21.2 µM; in test [2], 58.1 µM; in test [3] it was 33.1 µM; in test [4], 25 µM; in test [5], 42.8 µM; in test [6], 29.7 µM. The GI50 in test [7] is 41.9 µM; in test [8], 60 µM. Moreover, the TGI in test [1] is 53.2 µM; in test [2], more than 100 µM; in test [3], 58.2 µM; in test [4], 76.7 µM; in test [5] it was more than 100 µM; in test [6], more than 100 µM. The TGI in test [7] and in test [8] was more than 100 µM in each case.

On to `O=C1c2ccccc2-c2c1c1ccccc1c(=O)n2CCCN1CCOCC1`, for which the GI50 is 8.36 µM in test [1]; more than 100 µM in test [2]; 24.9 µM in test [3]; 10.7 µM in test [4]; 4.81 µM in test [5]; 14 µM in test [6]. Also, the values for the GI50 in test [7] and in test [8] were 9.31 µM and more than 100 µM, respectively. For the same molecule, the TGI in test [1] was more than 50.1 µM; in test [2], more than 100 µM; in test [3], more than 100 µM; in test [4], 59.5 µM; in test [5] it was 13 µM; in test [6], 30 µM. Further, the TGI in test [7] and in test [8] was more than 100 µM throughout.

For `CCN(CC)CCCCCCCNc1c2ccc(Cl)cc2nc2ccc(OC)cc12`, the GI50 in test [1] is 0.498 µM; in test [2], 0.203 µM; in test [3] it was 1.71 µM; in test [4], 0.829 µM; in test [5] it was 1.29 µM; in test [6] it was 1.55 µM. For the same molecule, the results for the GI50 in test [7] and in test [8] were 0.356 µM and 1.91 µM, respectively. In addition, the TGI is 1.65 µM in test [1]; 0.604 µM in test [2]; 3.62 µM in test [3]; 4.93 µM in test [4]; 3.45 µM in test [5]; 4.65 µM in test [6]. Also, the values for the TGI in test [7] and in test [8] were 1.59 µM and 3.64 µM, respectively.

Turning to `Cc1cc2c(F)c(Oc3ncnn4cc(OC[C@@H](C)OC(=O)[C@H](C)N)c(C)c34)ccc2[nH]1`, the GI50 in test [1] was 9.1 µM; in test [2], 5.73 µM; in test [3] it was 7.2 µM; in test [4], 8.85 µM; in test [5] it was 16.6 µM; in test [6], 7.21 µM. The GI50 was 8.58 µM in test [7] and 12.9 µM in test [8]. In addition, the TGI in test [1] came out at 23.4 µM; in test [2], 18.9 µM; in test [3], 26.3 µM; in test [4], 21.5 µM; in test [5], 33.5 µM; in test [6] it was 21.5 µM. Besides, the TGI in test [7] came to 24 µM; in test [8], 25.7 µM.

With `O=C1c2ccccc2-c2c1c1ccccc1c(=O)n2CCNCCNCCn1c2c(c3ccccc3c1=O)C(=O)c1ccccc1-2`, the GI50 was 1.02 µM in test [1]; 0.017 µM in test [2]; 98.5 µM in test [3]; 0.0217 µM in test [4]; 17.4 µM in test [5]; 0.527 µM in test [6]. The figures for the GI50 in test [7] and in test [8] were 0.109 µM and 2.9 µM, respectively. For the same molecule, the TGI was more than 21.2 µM in test [1]; more than 100 µM in test [2]; more than 100 µM in test [3]; 17 µM in test [4]; 39.7 µM in test [5]; 18.4 µM in test [6]. The TGI in test [7] came out at 1.06 µM; in test [8], 24.5 µM.

Take `COc1ccc(-c2cn[nH]c2-c2cc(OC)c(OC)c(OC)c2)cc1N`: the GI50 in test [1] is < 0.01 µM and 0.0415 µM; in test [2], < 0.01 µM and 0.0339 µM; in test [3], < 0.01 µM and 0.0248 µM; in test [4], < 0.01 µM and 0.044 µM; in test [6], < 0.01 µM and 0.0324 µM; in test [7], < 0.01 µM and 0.0266 µM. The TGI in test [1] is more than 100 µM; in test [2], more than 100 µM; in test [3], < 0.01 µM and 0.0834 µM; in test [4] it was more than 100 µM; in test [5], more than 100 µM; in test [6], more than 100 µM. Further, the TGI in test [7] and in test [8] was more than 100 µM throughout.

On to `C[C@H]1CCC/C=C/[C@@H]2C[C@H](O)C[C@H]2[C@H](O)[C@@H](S(=O)CCN(C)C)CC(=O)O1` (stereo not given in full), for which the GI50 in test [1] was 0.337 µM; in test [2] it was 0.114 µM; in test [3] it was 0.303 µM; in test [4] it was 0.428 µM; in test [5], 4.99 µM; in test [6], 0.389 µM. Also, the results for the GI50 in test [7] and in test [8] were 0.147 µM and 0.586 µM, respectively. For the same molecule, the TGI in test [2] is 0.293 µM; in test [3] it was more than 100 µM; in test [5], more than 100 µM; in test [8] it was more than 100 µM.

On to `S=C(Nc1ccc(Cl)cc1)Nc1ccc(-c2nc3ccccc3[nH]2)cc1`, for which the GI50 in test [1] is 7.02 µM; in test [2] it was 4.06 µM; in test [3] it was 7.26 µM; in test [4], 7.08 µM; in test [5], 1.53 µM; in test [6], 2.7 µM. In addition, the TGI in test [1] is 23.7 µM; in test [2], 14.9 µM; in test [3] it was more than 66 µM; in test [4], 31.2 µM; in test [5], 12.3 µM; in test [6], 12.5 µM. Moreover, the results for the TGI in test [7] and in test [8] were more than 41.5 µM and 35.5 µM, respectively.

Source of the values: PubChem BioAssay (NCI).
